Patent US8247211B2, “Glycopeptide antibiotics” (American Cyanamid Company, priority 2001, dated 2012)
In brackets after ≈: the same amount, converted by molar mass.

Key:
Test in all cases: In vitro antibacterial evaluation: minimum inhibitory concentration (MIC), broth dilution method
Type in all cases: cell-based
Enterococcus sp. = settings: 18 hours at 35° C.
Summary of the method: (§1)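 Susceptibility determined by NCCLS-recommended broth dilution (M7-A2), Muller-Hinton II […]. Concentration span 64-0.06 μg/mL, inoculum 5×10^5 CFU/mL. Isolates include strains resistant to methicillin, penicillin and/or vancomycin.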

Escherichia coli = settings: 18 hours at 35° C.
Summary of the method: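 MIC read as lowest drug level preventing visible growth. Organisms at 5×10^5 CFU/mL were exposed to a 64-0.06 μg/mL dilution series in Muller-Hinton II […] following NCCLS broth dilution standard M7-A2.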

Staphylococcus sp. = test system: Staphylococcus sp.
Summary of the method: as §1

Streptococcus sp. = settings: 18 hours at 35° C.
Summary of the method: as §1

[1] = broth dilution, inoculum 5×10^5 CFU/mL

MIC Enterococcus avium (GC 4558) (Enterococcus sp.; Enterococcus avium (GC 4558)): 4 µg/mL (≈ 2.79 µM)
MIC Enterococcus faecalis (ATCC 29212) (Enterococcus sp.; Enterococcus faecalis (ATCC 29212)): 8 µg/mL (≈ 5.59 µM)
MIC Enterococcus faecalis (GC 2242) (Enterococcus sp.; Enterococcus faecalis (GC 2242)): 8 µg/mL (≈ 5.59 µM)
MIC Enterococcus faecalis (GC 2691) (Enterococcus sp.; Enterococcus faecalis (GC 2691)): 8 µg/mL (≈ 5.59 µM)
MIC Enterococcus faecalis (GC 3059) (Enterococcus sp.; Enterococcus faecalis (GC 3059)): 8 µg/mL (≈ 5.59 µM)
MIC Enterococcus faecalis (GC 4552) (Enterococcus sp.; Enterococcus faecalis (GC 4552)): 8 µg/mL (≈ 5.59 µM)
MIC Enterococcus faecalis (GC 4553) (Enterococcus sp.; Enterococcus faecalis (GC 4553)): 8 µg/mL (≈ 5.59 µM)
MIC Enterococcus faecalis (GC 4554) (Enterococcus sp.; Enterococcus faecalis (GC 4554)): 8 µg/mL (≈ 5.59 µM)
MIC Enterococcus faecalis (GC 6189) (Enterococcus sp.; Enterococcus faecalis (GC 6189)): 8 µg/mL (≈ 5.59 µM)
MIC Enterococcus faecium (GC 2243) (Enterococcus sp.; Enterococcus faecium (GC 2243)): 8 µg/mL (≈ 5.59 µM)
MIC Enterococcus faecium (GC 4556) (Enterococcus sp.; Enterococcus faecium (GC 4556)): 8 µg/mL (≈ 5.59 µM)
MIC Enterococcus faecium (GC 4557) (Enterococcus sp.; Enterococcus faecium (GC 4557)): 8 µg/mL (≈ 5.59 µM)
MIC Enterococcus avium (GC 4558) (Enterococcus sp.; [1]): 4 µg/mL (≈ 2.79 µM)
MIC Enterococcus faecalis (ATCC 29212) (Enterococcus sp.; [1]): 8 µg/mL (≈ 5.59 µM)
MIC Enterococcus faecalis (GC 2242) (Enterococcus sp.; [1]): 8 µg/mL (≈ 5.59 µM)
MIC Enterococcus faecalis (GC 2691) (Enterococcus sp.; [1]): 8 µg/mL (≈ 5.59 µM)
MIC Enterococcus faecalis (GC 3059) (Enterococcus sp.; [1]): 8 µg/mL (≈ 5.59 µM)
MIC Enterococcus faecalis (GC 4552) (Enterococcus sp.; [1]): 8 µg/mL (≈ 5.59 µM)
MIC Enterococcus faecalis (GC 4553) (Enterococcus sp.; [1]): 8 µg/mL (≈ 5.59 µM)
MIC Enterococcus faecalis (GC 4554) (Enterococcus sp.; [1]): 8 µg/mL (≈ 5.59 µM)
MIC Enterococcus faecalis (GC 6189) (Enterococcus sp.; [1]): 8 µg/mL (≈ 5.59 µM)
MIC Enterococcus faecium (GC 2243) (Enterococcus sp.; [1]): 8 µg/mL (≈ 5.59 µM)
MIC Enterococcus faecium (GC 4556) (Enterococcus sp.; [1]): 8 µg/mL (≈ 5.59 µM)
MIC Enterococcus faecium (GC 4557) (Enterococcus sp.; [1]): 8 µg/mL (≈ 5.59 µM)
MIC Escherichia coli (ATCC 25922) (Escherichia coli; Escherichia coli (ATCC 25922)): 64 µg/mL (≈ 44.7 µM)
MIC Escherichia coli (GC 4559) (Escherichia coli; Escherichia coli (GC 4559)): >64 µg/mL
MIC Escherichia coli (GC 4560) (Escherichia coli; Escherichia coli (GC 4560)): 8 µg/mL (≈ 5.59 µM)
MIC Staphylococcus aureus (ATCC 29213) (Staphylococcus sp.; strain ATCC 29213): 4 µg/mL (≈ 2.79 µM)
MIC Staphylococcus aureus (GC 1131) (Staphylococcus sp.; strain GC 1131): 8 µg/mL (≈ 5.59 µM)
MIC Staphylococcus aureus (GC 3051) (Staphylococcus sp.; strain GC 3051): 4 µg/mL (≈ 2.79 µM)
MIC Staphylococcus aureus (GC 3053) (Staphylococcus sp.; strain GC 3053): 4 µg/mL (≈ 2.79 µM)
MIC Staphylococcus aureus (GC 4541) (Staphylococcus sp.; strain GC 4541): 8 µg/mL (≈ 5.59 µM)
MIC Staphylococcus aureus (GC 4542) (Staphylococcus sp.; strain GC 4542): 4 µg/mL (≈ 2.79 µM)
MIC Staphylococcus aureus-SMITH (GC 4543) (Staphylococcus sp.; strain GC 4543): 4 µg/mL (≈ 2.79 µM)
MIC Staphylococcus aureus (GC 4544) (Staphylococcus sp.; strain GC 4544): 8 µg/mL (≈ 5.59 µM)
MIC Staphylococcus aureus (GC 4545) (Staphylococcus sp.; strain GC 4545): 4 µg/mL (≈ 2.79 µM)
MIC Coagulase Negative Staphylococcus (GC 4547) (Staphylococcus sp.; strain GC 4547): 4 µg/mL (≈ 2.79 µM)
MIC Coagulase Negative Staphylococcus (GC 4548) (Staphylococcus sp.; strain GC 4548): 4 µg/mL (≈ 2.79 µM)
MIC Coagulase Negative Staphylococcus (GC 4549) (Staphylococcus sp.; strain GC 4549): 4 µg/mL (≈ 2.79 µM)
MIC Coagulase Negative Staphylococcus (GC 4551) (Staphylococcus sp.; strain GC 4551): 4 µg/mL (≈ 2.79 µM)
MIC Coagulase Negative Staphylococcus (GC 6257) (Staphylococcus sp.; strain GC 6257): 4 µg/mL (≈ 2.79 µM)
MIC Streptococcus agalactiae (GC 4564) (Streptococcus sp.; Streptococcus agalactiae (GC 4564)): 0.12 µg/mL (≈ 0.0838 µM)
MIC Streptococcus pneumoniae (ATCC 6301) (Streptococcus sp.; Streptococcus pneumoniae (ATCC 6301)): <0.06 µg/mL
MIC Streptococcus pneumoniae (GC 1894) (Streptococcus sp.; Streptococcus pneumoniae (GC 1894)): <0.06 µg/mL
MIC Streptococcus pneumoniae (GC 4565) (Streptococcus sp.; Streptococcus pneumoniae (GC 4565)): <0.06 µg/mL
MIC Streptococcus pyogenes (GC 4563) (Streptococcus sp.; Streptococcus pyogenes (GC 4563)): 0.12 µg/mL (≈ 0.0838 µM)
MIC Streptococcus agalactiae (GC 4564) (Streptococcus sp.; [1]): 0.12 µg/mL (≈ 0.0838 µM)
MIC Streptococcus pneumoniae (ATCC 6301) (Streptococcus sp.; [1]): <0.06 µg/mL
MIC Streptococcus pneumoniae (GC 1894) (Streptococcus sp.; [1]): <0.06 µg/mL
MIC Streptococcus pneumoniae (GC 4565) (Streptococcus sp.; [1]): <0.06 µg/mL
MIC Streptococcus pyogenes (GC 4563) (Streptococcus sp.; [1]): 0.12 µg/mL (≈ 0.0838 µM)
SMILES: CC(c1ccccc1)C1NC(=O)CNC(=O)C(CO)NC(=O)C(C(O)C2CNC(=N)N2C2OC(CO)C(O)C(O)C2O)NC(=O)C(C(O)C2CNC(=N)N2)NC(=O)C(Cc2ccc(OC3OC(CO)C(OC4OC5COC6(CCC(C(C)(C)C)CC6)OC5C(O)C4O)C(O)C3O)cc2)NC1=O (stereo not drawn) [Example 208, Cyclo[glycyl-β-methylphenylalanyl-O-[4-O-[4,6-O-(4-tert, butylcyclohexylidene)hexopyranosyl]hexopyranosyl]tyrosyl-3-(2-iminoimidazolidin-4-yl)seryl-3-(3-hexopyranosyl-2-iminoimidazolidin-4-yl)serylseryl]]
MIC Staphylococcus haemolyticus (GC 4546) (Staphylococcus sp.; strain GC 4546): 4 µg/mL (≈ 2.79 µM)
